In publication PMC7148433 (Biochemical Journal, 2020):
pKd: −log10 of the molar value.

Biological target: T1, lipocalin-type prostaglandin D synthase (L-PGDS) (Homo sapiens, UniProt P41222)
T1 sequence (P41222 23-190): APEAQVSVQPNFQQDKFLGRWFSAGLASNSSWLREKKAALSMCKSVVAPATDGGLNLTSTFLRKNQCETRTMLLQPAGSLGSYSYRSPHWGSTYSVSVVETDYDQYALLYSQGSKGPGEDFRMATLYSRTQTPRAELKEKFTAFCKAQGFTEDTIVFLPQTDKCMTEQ
Test: tryptophan fluorescence quenching
Assay type: binding

**Q.** `C=CC1=C(C)C2=Cc3c(C=C)c(C)c4[n]3[Fe][n]3c(c(C)c(CCC(=O)O)c3=CC3=NC(=C4)C(C)=C3CCC(=O)O)=CC1=N2` [heme] was tested. Which pKd did it give?
**A.** The pKd was 7.40.
